Test results published in patent US10478435B2, “Use of CRAC channel inhibitors for the treatment of stroke and traumatic brain injury” (CalciMedica, Inc., priority 2015, dated 2019).

System: BV2 cells
Test: Intracellular calcium accumulation in BV2 cells by live fluorescence microscopy with a calcium fluorescent probe
Format: cell-based
Conditions: Compound at 10 uM, FIG. 7
Method: Described herein, in some embodiments CRAC channel inhibitors are neuroprotectants in brain ischemia and related conditions. A neuron cell line (Neuro-2A, N-2A) was either cultured alone or in co-culture with microglial BV2 cells. Cells were exposed to a cycle of 2 h oxygen glucose deprivation (OGD) plus 22 h reoxygenation in the absence or presence of inhibitor (concentrations 1-50 μM). Cell viability was determined using quantitative calorimetric MTT assay and live/dead assay using immunofluorescence imaging. Toll-like receptor (TLR)-3 and -4 agonists induced inflammatory responses in microglia leading to increased nitric oxide (NO) generation as determined by the Greiss reagent. Intracellular calcium was determined by live fluorescence microscopy using a calcium fluorescent probe. Peroxide levels were measured as an indicator of oxidative stress. CRAC channels proteins (STIM1 & ORAI1), phosphoactive stress kinase JNK1/2, iNOS and expression was determined by immunoblotting assays. NFκB, NFAT and CREB transcription factors activation was measured by phosphorylation and nuclear translocation. […] The functional activity of the CRAC channels was evaluated by the effect on intracellular calcium accumulation in BV2 cells. […]
Fluorescence-based A neuron cell line (Neuro-2A, N-2A) was either cultured alone or in co-culture with microglial BV2 cells. […]

## Cc1nc2cc(C)c(-c3cnc(NC(=O)c4c(F)ccc(F)c4F)s3)cc2o1 [Compound D, N-(5-(2,5-dimethylbenzo[d]oxazol-6-yl)thiazol-2-yl)-2,3,6-trifluorobenzamide]
  LPS activated calcium accumulation: blunts LPS activated calcium accumulation
